Experimental data published in US8551984B2, “Aminopyrimidines as SYK inhibitors” (Merck Sharp & Dohme Corp., priority 2009, dated 2013).

Biological target: recombinant human SYK (GST-hSYK fusion protein) (Homo sapiens, UniProt P43405)
Experiment: biochemical
[1] = rhSYK Activity, Table 10, Formula A
[2] = rhSYK Activity (IC50), recombinant human GST-SYK 5 pM, ATP 25 μM, biotinylated substrate peptide 250 nM, HTRF, 10-dose titration

Description: Homogeneous Time-Resolved Fluorescence (HTRF) Assay for the Recombinant Human SYK Enzyme:

`Cc1cc(Nc2nccc(C(F)(F)F)n2)cc(-c2cnc(C3(O)CCC(NC(=O)CC4CCOCC4)CC3)s2)c1` (stereo not drawn) [Example 54E-29] showed an IC50 (rhSYK Activity, Table 54E) of less than 100 nM.
For `O=C(Nc1cc(Nc2nccc(C(F)(F)F)n2)cc(-c2cnc(C3(O)CCC3)s2)c1)C1CC1` [Example 16-2], the IC50 (rhSYK Activity, table of Examples 16-x) was less than 100 nM.
`C=CCC(=O)N1CCCC(O)(c2ncc(-c3cc(C)cc(Nc4nccc(C(F)(F)F)n4)c3)s2)CC1` (stereo not drawn) [Example 54D-11] was tested, and the IC50 (rhSYK Activity, Table 54D) was less than 100 nM.
`COc1ccnc(Nc2cc(C)cc(-c3cnc(C4(O)CCNC(=O)CC4)s3)c2)n1` (stereo not drawn) [Example 10A-1] was tested, and the IC50 [1] was less than 100 nM.
In the case of `COC(=O)C1(C(=O)N2CCCC(O)(c3ncc(-c4cc(C)cc(Nc5nccc(C(F)(F)F)n5)c4)s3)CC2)CC1` (stereo not drawn) [Example 54D-95], the IC50 (rhSYK Activity, Table 54D) is reported as less than 100 nM.
`Cc1cc(Nc2nccc(C(F)(F)F)n2)cc(-c2cnc(C3(NS(=O)(=O)C(F)(F)F)CCC3)s2)c1` [Example 61B-5] showed an IC50 (rhSYK Activity, Table 61B) of less than 100 nM.
`Cc1cc(Nc2nccc(C(F)(F)F)n2)cc(-c2cnc(C(=O)N(C)CCC3OCCO3)s2)c1` [Example 87A-17] gave an IC50 [2] of 100 to 1000 nM.
Work on `Cc1cc(Nc2nccc(C3CCC3)n2)cc(-c2cnc(C3(O)CCC3)s2)c1` [Example 107, 1-(5-{3-[(4-cyclobutylpyrimidin-2-yl)amino]-5-methylphenyl}-1,3-thiazol-2-yl)cyclobutanol] yielded an IC50 [2] of less than 100 nM.
With `Cc1cc(Nc2nccc(C(F)(F)F)n2)cc(-c2cnc(C3(S(C)(=O)=O)CCC3)s2)c1` [Example 74B-2] the IC50 (rhSYK Activity, Table 74B) was less than 100 nM.
In the case of `Cc1cc(Nc2nccc(C(F)(F)F)n2)cc(-c2cnc(C3(O)CCN(C(=O)C(=O)O)C3)s2)c1` (stereo not drawn) [54B-25], the IC50 (rhSYK Activity, Table 54B) is reported as less than 100 nM.
In the case of `COc1nc(Nc2cc(C)cc(-c3cnc([C@]4(O)CC[C@@H](O)CC4)s3)c2)ncc1F` [8A-3], the IC50 (rhSYK Activity, Table 8A) is reported as less than 100 nM.
For `Cc1cc(Nc2nccc(C(F)(F)F)n2)cc(-c2cnc(C(=O)NCCS(C)(=O)=O)s2)c1` [Example 87A-5], the IC50 [2] was less than 100 nM.
Compound `Cc1cc(Nc2nccc(C(F)(F)F)n2)cc(-c2cnc(CNCC(C)O)s2)c1` (stereo not drawn) [Example 88A-17] has an IC50 [2] of less than 100 nM.
With `Cc1cc(Nc2nccc(OCC3CC(=O)N(C)C3)n2)cc(-c2cnc(C3(O)CCC3)s2)c1` (stereo not drawn) [Example 108A-23] the IC50 (rhSYK Activity, Table 108A) was less than 100 nM.
In the case of `COc1nc(Nc2cc(C)cc(-c3cnc([C@]4(O)CC[C@@H](C(=O)O)[C@@H](C)C4)s3)c2)ncc1Cl` [Example 113A-37], the IC50 (rhSYK Activity, Table 113A) is reported as less than 100 nM.
For `Cc1cc(Nc2nccc(OC3CCC(C)(O)CC3)n2)cc(-c2cnc(C(C)(O)C(F)(F)F)s2)c1` (stereo not drawn) [Example 94B-2], the IC50 [2] was less than 100 nM.
`Cc1cc(Nc2nccc(C(C)C)n2)cc(-c2cnc(C3(O)CCNC(=O)CC3)s2)c1` (single isomer, unassigned) [Example 10A-2] was tested, and the IC50 [1] was less than 100 nM.
`Cc1cc(Nc2nccc(C(F)(F)F)n2)cc(-c2cnc(C(C)(C)NS(C)(=O)=O)s2)c1` [61A-4] showed an IC50 (rhSYK Activity, Table 61A) of less than 100 nM.
`Cc1cc(Nc2nccc(C(F)(F)F)n2)cc(-c2cnc(CN3CCNC(=O)CC3)s2)c1` [Example 88B-7] was tested, and the IC50 [2] was less than 100 nM.
With `COC(=O)C1CCC(O)(c2ncc(-c3cc(C)cc(Nc4ncc(F)c(C5CC5)n4)c3)s2)CC1(C)C` (stereo not drawn) [Example 33A-39] the IC50 (rhSYK Activity, Table 33-A) was less than 100 nM.
`COc1ccnc(Nc2cc(C)cc(-c3cnc(C(C)(O)C(F)(F)F)s3)c2)n1` (stereo not drawn) [Example 100B-1] was tested, and the IC50 [2] was less than 100 nM.
Compound `Cc1cc(Nc2nccc(C(F)(F)F)n2)cc(-c2cnc(C3(N)CCNC(=O)CC3)s2)c1` (stereo not drawn) [Example 162, 5-amino-5-[5-(3-methyl-5-{[4-(trifluoromethyl)pyrimidin-2-yl]amino}phenyl)-1,3-thiazol-2-yl]azepan-2-one] has an IC50 [2] of less than 100 nM.
Compound `Cc1cc(Nc2nccc(C(F)(F)F)n2)cc(-c2cnc(CN(C)CCS(C)(=O)=O)s2)c1` [Example 88A-25] has an IC50 [2] of less than 100 nM.
Compound `Cc1cc(Nc2ncc(F)cn2)cc(-c2cnc(C3(O)CCC(C(=O)O)C(C)(C)C3)s2)c1` (single isomer, unassigned) [Example 33A-46] has an IC50 (rhSYK Activity, Table 33-A) of 100 to 1000 nM.
In the case of `Cc1cc(Nc2nccc(C(F)(F)F)n2)cc(-c2cnc(C3(O)CCN(CCO)C3)s2)c1` (stereo not drawn) [54B-19], the IC50 (rhSYK Activity, Table 54B) is reported as less than 100 nM.
`Cc1cc(Nc2nccc(C(F)(F)F)n2)cc(-c2cnc(CNCC(O)CO)s2)c1` (stereo not drawn) [Example 88A-41] gave an IC50 [2] of less than 100 nM.
For `Cc1cc(Nc2nccc(C(F)(F)F)n2)cc(-c2cnc(C3(O)CCCN(S(N)(=O)=O)CC3)s2)c1` (single isomer, unassigned) [Example 54D-116], the IC50 (rhSYK Activity, Table 54D) was less than 100 nM.
`Cc1cc(Nc2nccc(C(F)(F)F)n2)cc(-c2cnc(C3(O)CCCN(C(=O)CC(C)O)CC3)s2)c1` (stereo not drawn) [Example 54D-23] gave an IC50 (rhSYK Activity, Table 54D) of less than 100 nM.
`Cc1cc(Nc2nccc(C(F)(F)F)n2)cc(-c2cnc(C(=O)N3CC[C@@H](CO)C3)s2)c1` [Example 87B-11] gave an IC50 [2] of less than 100 nM.
`CNC(=O)NCc1ncc(-c2cc(C)cc(Nc3nccc(C(F)(F)F)n3)c2)s1` [Example 88A-61] showed an IC50 [2] of less than 100 nM.
In the case of `Cc1cc(Nc2nccc(C(F)(F)F)n2)cc(-c2cnc(C3(O)CCCN(C(=O)CC(=O)O)CC3)s2)c1` (single isomer, unassigned) [Example 54D-25], the IC50 (rhSYK Activity, Table 54D) is reported as less than 100 nM.
Work on `COC(=O)C1CCC(O)(c2ncc(-c3cc(C)cc(Nc4nccc(C)n4)c3)s2)CC1C` (stereo not drawn) [Example 113A-8] yielded an IC50 (rhSYK Activity, Table 113A) of less than 100 nM.
`COC(=O)CCCN1CCC(O)(c2ncc(-c3cc(C)cc(Nc4nccc(C(F)(F)F)n4)c3)s2)CC1` [Example 54A-73] showed an IC50 (RHSYK Activity, Table 54A) of less than 100 nM.
Work on `NC(=O)NC(=O)Nc1cc(Nc2nccc(C(F)(F)F)n2)cc(-c2cnc(C3(O)CCC3)s2)c1` [Example 19-5] yielded an IC50 (rhSYK Activity, table of Examples 19-x) of less than 100 nM.
`Cc1cc(Nc2nccc(C(F)(F)F)n2)cc(-c2cnc(C3(O)CCCN(C(=O)CCC(=O)N(C)C)CC3)s2)c1` (stereo not drawn) [Example 54D-98] was tested, and the IC50 (rhSYK Activity, Table 54D) was less than 100 nM.
Work on `Cc1cc(Nc2nccc(C(F)(F)F)n2)cc(-c2cnc(C(=O)N3C[C@@H](O)[C@@H](O)C3)s2)c1` [Example 87B-18] yielded an IC50 [2] of less than 100 nM.
`Cc1cc(Nc2nccc(O[C@H]3CCOC3)n2)cc(-c2cnc(C3(O)CCC3)s2)c1` [Example 94A-10] was tested, and the IC50 [2] was less than 100 nM.
Compound `Cc1cc(Nc2nccc(C(F)(F)F)n2)cc(-c2cnc(C3(c4nnc(C)o4)CC3)s2)c1` [Example 85B-4] has an IC50 [2] of less than 100 nM.
With `CCOC(=O)C1CCC(O)(c2ncc(-c3cc(C)cc(Nc4nccc(C)n4)c3)s2)C(C)C1C` (stereo not drawn) [Example 113A-70] the IC50 (rhSYK Activity, Table 113A) was less than 100 nM.
In the case of `Cc1cc(Nc2nccc(C(F)(F)F)n2)cc(-c2cnc(C3(O)CCC(NC(=O)C4CCCC(=O)N4)CC3)s2)c1` (stereo not drawn) [Example 54E-28], the IC50 (rhSYK Activity, Table 54E) is reported as less than 100 nM.
`Cc1cc(Nc2nccc(C(F)(F)F)n2)cc(-c2cnc(CN(C)C3COCC3O)s2)c1` (stereo not drawn) [Example 88A-54] was tested, and the IC50 [2] was less than 100 nM.
With `Cc1cc(Nc2nccc(OC3CCCC3)n2)cc(-c2cnc(C3(O)CCC3)s2)c1` [Example 94A-31] the IC50 [2] was less than 100 nM.
With `Cc1cc(Nc2nccc(C(F)(F)F)n2)cc(-c2cnc(/C=C/c3ccc(C(=O)O)cc3)s2)c1` [Example 147] the IC50 [2] was less than 100 nM.
Compound `Cc1cc(Nc2ncc(F)c(C)n2)cc(-c2cnc([C@]3(O)CC[C@@H](C(=O)O)[C@@H](C)C3)s2)c1` [Example 113A-19] has an IC50 (rhSYK Activity, Table 113A) of less than 100 nM.
Work on `COC(=O)C1CC(O)(c2ncc(-c3cc(C)cc(Nc4nccc(C(F)(F)F)n4)c3)s2)CN1C(N)=O` (stereo not drawn) [54B-37] yielded an IC50 (rhSYK Activity, Table 54B) of less than 100 nM.
`FC(F)(F)c1ccnc(Nc2cccc(-c3cnc(C4COCCO4)s3)c2)n1` (stereo not drawn) [Example 21-15] showed an IC50 (rhSYK Activity, Table 21) of less than 100 nM.
Compound `Cc1cc(Nc2nccc(O[C@H](C)C(=O)O)n2)cc(-c2cnc(C3(O)CCC3)s2)c1` [Example 94A-22] has an IC50 [2] of 100 to 1000 nM.
For `Cc1cc(Nc2nccc(C(F)(F)F)n2)cc(-c2cnc(C3(O)CCN(S(=O)(=O)C(C)C)CC3)s2)c1` [Example 54A-1], the IC50 (RHSYK Activity, Table 54A) was less than 100 nM.
In the case of `Cc1cc(Nc2nccc(C(F)(F)F)n2)cc(-c2cnc(CC3(C(=O)O)CCNC3=O)s2)c1` (stereo not drawn) [Example 92, 3-{[5-(3-methyl-5-{[4-(trifluoromethyl)pyrimidin-2-yl]amino}phenyl)-1,3-thiazol-2-yl]methyl}-2-oxopyrrolidine-3-carboxylic acid], the IC50 [2] is reported as less than 100 nM.
In the case of `Cc1cc(Nc2nccc(S(C)(=O)=O)n2)cc(-c2cnc(C3(O)CCC3)s2)c1` [Example 108A-39], the IC50 (rhSYK Activity, Table 108A) is reported as less than 100 nM.
`Cc1cc(Nc2nccc(C(F)(F)F)n2)cc(-c2cnc([C@]3(O)CC[C@@H](NC(=O)C4CCCCC4)CC3)s2)c1` [Example 54E-14] showed an IC50 (rhSYK Activity, Table 54E) of less than 100 nM.
`Cc1cc(Nc2nccc(OCCn3nccn3)n2)cc(-c2cnc(C3(O)CCC3)s2)c1` [Example 108A-12] was tested, and the IC50 (rhSYK Activity, Table 108A) was less than 100 nM.
`Cc1cc(Nc2nccc(C(F)(F)F)n2)cc(-c2cnc(C(=O)N3CCC(C(=O)O)CC3)s2)c1` [Example 87B-19] showed an IC50 [2] of less than 100 nM.
`COCc1cc(Nc2nccc(C(F)(F)F)n2)cc(-c2cnc(C3(O)CCC(C(=O)O)C(C)C3)s2)c1` (stereo not drawn) [Example 113A-42] was tested, and the IC50 (rhSYK Activity, Table 113A) was less than 100 nM.
`COc1nc(Nc2cc(C)cc(-c3cnc(C4(O)CCC(O)CC4)s3)c2)ncc1C(F)(F)F` (stereo not drawn) [Example 100A-11] was tested, and the IC50 [2] was 100 to 1000 nM.
Work on `Cc1cc(Nc2nccc(C(F)(F)F)n2)cc(-c2cnc(CNCCO)s2)c1` [Example 88A-18] yielded an IC50 [2] of less than 100 nM.
`CC(=O)NCc1cc(Nc2nccc(C(F)(F)F)n2)cc(-c2cnc([C@@]3(O)CC[C@H](C(=O)O)C(C)(C)C3)s2)c1` [Example 125, (1S,4R)-4-[5-(3-[(acetylamino)methyl]-5-{[4-(trifluoromethyl)pyrimidin-2-yl]amino}phenyl)-1,3-thiazol-2-yl]-4-hydroxy-2,2-dimethylcyclohexanecarboxylic acid] gave an IC50 [2] of less than 100 nM.
`COc1nc(Nc2cc(C)cc(-c3cnc(C4(N)COC4)s3)c2)ncc1Cl` [Example 61B-10] showed an IC50 (rhSYK Activity, Table 61B) of less than 100 nM.
`Cc1cc(Nc2ncccn2)cc(-c2cnc(C3(NC(N)=O)CCC3)s2)c1` [Example 64-3] was tested, and the IC50 (rhSYK Activity, Table 64, first part) was less than 100 nM.
In the case of `Cc1cc(Nc2nccc(C(F)(F)F)n2)cc(-c2cnc(C(=O)N[C@H](c3ccccc3)[C@@H](O)C(=O)O)s2)c1` [Example 87A-32], the IC50 [2] is reported as less than 100 nM.
`Cc1ccnc(Nc2cc(-c3cnc(C4(O)CCC(C(=O)O)C(C)C4)s3)cc(C3CC3)c2)n1` (stereo not drawn) [Example 113A-23] showed an IC50 (rhSYK Activity, Table 113A) of less than 100 nM.
`Cc1cc(Nc2nccc(C(F)(F)F)n2)cc(-c2cnc(C3(O)CCN(C(=O)C(C)(CO)CO)CC3)s2)c1` [Example 54A-44] was tested, and the IC50 (RHSYK Activity, Table 54A) was less than 100 nM.
Work on `Cc1cc(Nc2nccc(C(F)(F)F)n2)cc(-c2cnc(C3(O)CCN(CC(F)(F)F)CC3)s2)c1` [Example 54A-24] yielded an IC50 (RHSYK Activity, Table 54A) of less than 100 nM.
